Molecules are shown by their SMILES.

Broadly, the IC50 is the concentration that gives 50% inhibition.

Test [1] has as its target T1, N-acetyllactosaminide beta-1,3-N-acetylglucosaminyltransferase 2 (Homo sapiens, UniProt Q9NY97).
T1 sequence (Q9NY97 whole entry): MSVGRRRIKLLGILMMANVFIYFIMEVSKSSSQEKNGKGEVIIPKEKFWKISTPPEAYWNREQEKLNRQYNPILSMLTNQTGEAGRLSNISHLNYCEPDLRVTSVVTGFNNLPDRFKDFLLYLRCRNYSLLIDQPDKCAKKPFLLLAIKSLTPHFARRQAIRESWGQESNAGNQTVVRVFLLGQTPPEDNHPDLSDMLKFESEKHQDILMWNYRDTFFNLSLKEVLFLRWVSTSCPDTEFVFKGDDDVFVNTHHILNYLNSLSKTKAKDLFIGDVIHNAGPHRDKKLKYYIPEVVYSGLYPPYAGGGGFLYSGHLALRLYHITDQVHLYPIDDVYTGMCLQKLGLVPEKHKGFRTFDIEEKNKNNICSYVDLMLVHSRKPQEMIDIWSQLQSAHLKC
Put plainly: Inhibition of B3GNT2 (unknown origin) using N-acetyl-lactosamine and UDP-GlcNAc as substrate incubated for 1.5 to 2 hrs by UDP-Glo based analysis.

Test [2] has as its system Jurkat. Briefly: Antiproliferative activity against human Jurkat cells assessed as inhibition of cell growth incubated for 3 days by SYTOX blue staining based flow cytometry analysis. In kind it is functional. As to conditions: 72 h. (In flow cytometry, cells or beads pass a laser one at a time.)
In test [3] the target is N-acetyllactosaminide beta-1,3-N-acetylglucosaminyltransferase 4 (Homo sapiens, UniProt Q9C0J1). Put plainly: Inhibition of B3GNT4 (unknown origin) using Beta-lactose and UDP-GlcNAc as substrate incubated for 1.5 to 2 hrs by UDP-Glo based analysis.
Chain of N-acetyllactosaminide beta-1,3-N-acetylglucosaminyltransferase 4 (Q9C0J1 whole entry): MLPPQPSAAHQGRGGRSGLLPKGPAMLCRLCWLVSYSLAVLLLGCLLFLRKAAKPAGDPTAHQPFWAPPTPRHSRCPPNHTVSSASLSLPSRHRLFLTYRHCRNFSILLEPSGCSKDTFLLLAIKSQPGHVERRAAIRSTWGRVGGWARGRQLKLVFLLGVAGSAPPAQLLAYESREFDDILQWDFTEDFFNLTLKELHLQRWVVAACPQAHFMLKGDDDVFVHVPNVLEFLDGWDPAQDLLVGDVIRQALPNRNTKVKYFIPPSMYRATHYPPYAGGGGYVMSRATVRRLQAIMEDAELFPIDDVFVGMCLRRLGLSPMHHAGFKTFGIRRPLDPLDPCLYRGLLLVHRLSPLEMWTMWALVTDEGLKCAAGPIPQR

For `Cc1[nH]c2ccc([C@]3(C)N=C(c4ccc5[nH]c(=O)n([C@H](C)C(C)(C)C)c5c4)C(=O)N3)cc2c1C`, the IC50 in test [1] (read-out: IC50) was 1010 nM.
Consider `C[C@@H](n1c(=O)[nH]c2ccc(C3=NC(=O)[C@](C)(c4ncc(Cl)cn4)N3)cc21)C(C)(C)C`, for which the IC50 amounted to 16.2 µM in test [2] and 82 nM in test [1] (read-out: IC50).
On to `C[C@@H](n1c(=O)[nH]c2ccc(C3=N[C@@](Cc4ccccc4)(c4cnc(C(F)(F)F)nc4)NC3=O)cc21)C(C)(C)C`, for which the IC50 in test [2] stood at 4 µM; in test [1] (read-out: IC50), 13 nM.
As for `Cc1ncc([C@]2(C)NC(c3ccc4[nH]c(=O)n([C@H](C)C(C)(C)C)c4c3)=NC2=O)cn1`, the IC50 is 4.2 µM in test [2], more than 250 µM in test [3] and 24 nM in test [1] (read-out: IC50).
In the case of `C[C@@H](n1c(=O)[nH]c2ccc(C(=O)NC(C)(C)c3ccc(Cl)cc3)cc21)C(C)(C)C`, the IC50 was more than 250 µM in test [3] and 840 nM in test [1] (read-out: IC50).
As to `C[C@H](NC(=O)c1ccc2[nH]c(=O)n([C@H](C)C(C)(C)C)c2c1)c1ccc(Br)cn1`, the results for the IC50 in test [2], in test [3] and in test [1] (read-out: IC50) were 12.5 µM, 169 µM and 100 nM, respectively.
The corresponding values for `C[C@H](NC(=O)c1ccc2[nH]c(=O)n([C@H](C)C(C)(C)C)c2c1)c1ccc(Cl)cn1` are 32 µM, more than 250 µM and 230 nM.
In the case of `C[C@@H](n1c(=O)[nH]c2ccc(C(=O)O)cc21)C(C)(C)C`, the IC50 in test [2] was more than 85 µM; in test [3] it was 122 µM; in test [1] (read-out: IC50) it was 260 nM.
As to `C[C@@H](NC(=O)c1ccc2[nH]c(=O)n([C@H](C)C(C)(C)C)c2c1)c1ccc(Cl)cc1`, the results for the IC50 in test [3] and in test [1] (read-out: IC50) were more than 250 µM and 2720 nM, respectively.
As to `C[C@H](NC(=O)c1ccc2[nH]c(=O)n([C@H](C)C(C)(C)C)c2c1)c1cnc(Cl)nc1`, the IC50 in test [2] was 15.3 µM; in test [3] it was more than 250 µM; in test [1] (read-out: IC50) it was 76 nM.
Take `Cc1ccc([C@H](C)NC(=O)c2ccc3[nH]c(=O)n([C@H](C)C(C)(C)C)c3c2)nc1`: the IC50 in test [2] is 8.8 µM; in test [3] it was more than 250 µM; in test [1] (read-out: IC50), 93 nM.
Regarding `C[C@H](NC(=O)c1ccc2[nH]c(=O)n([C@H](C)C(C)(C)C)c2c1)c1ccc(Cl)cc1`, the half-maximal inhibitory concentration (IC50) in test [2] is 47.2 µM; in test [3], more than 250 µM; in test [1] (read-out: IC50) it was 290 nM.
Turning to `C[C@@H](n1c(=O)[nH]c2ccc(C3=N[C@]4(CCc5cc(Br)ccc54)NC3=O)cc21)C(C)(C)C`, the IC50 in test [2] amounted to 6.4 µM; in test [1] (read-out: IC50), 53 nM.
Turning to `C[C@@H](n1c(=O)[nH]c2ccc(C3=NC(C)(c4cnc(C(F)(F)F)nc4)C(=O)O3)cc21)C(C)(C)C` (stereo not given in full), in test [1], the IC50 entry is listed as “Not Active”.
Turning to `Cc1ccc([C@]2(C)NC(c3ccc4[nH]c(=O)n([C@H](C)C(C)(C)C)c4c3)=NC2=O)cn1`, the IC50 is 5.1 µM in test [2] and 29 nM in test [1] (read-out: IC50).
For `C[C@@H](n1c(=O)[nH]c2ccc(C3=NC(=O)[C@](C)(c4ccccc4)N3)cc21)C(C)(C)C`, the IC50 in test [2] is more than 85 µM; in test [3] it was more than 250 µM; in test [1] (read-out: IC50), 600 nM.
For `CC(C)NC(=O)c1ccc2[nH]c(=O)n([C@H](C)C(C)(C)C)c2c1`, the figures for the IC50 in test [3] and in test [1] (read-out: IC50) were more than 250 µM and 2900 nM, respectively.
On to `C[C@@H](n1c(=O)[nH]c2ccc(C3=N[C@@](C)(c4ccc(Cl)cn4)NC3=O)cc21)C(C)(C)C`, for which the IC50 in test [2] was found to be 8.2 µM; in test [1] (read-out: IC50), 69 nM.
The corresponding values for `C[C@@H](n1c(=O)[nH]c2ccc(C3=C[C@@](C)(c4cnc(C(F)(F)F)nc4)OC3=O)cc21)C(C)(C)C` are 5.6 µM and 28 nM.
The corresponding values for `C[C@@H](n1c(=O)[nH]c2ccc(C3=NC(=O)[C@](C)(c4ccc(Cl)cn4)N3)cc21)C(C)(C)C` are 8.1 µM and 66 nM.
The corresponding values for `C[C@@H](n1c(=O)[nH]c2ccc(C3=N[C@](c4ccc(Cl)nc4)(c4ccccn4)NC3=O)cc21)C(C)(C)C` are 5.5 µM and 39 nM.
Consider `C[C@H](NC(=O)c1ccc2[nH]c(=O)n([C@H](C)C(C)(C)C)c2c1)c1ccc(C(F)(F)F)cn1`, for which the IC50 in test [2] was 66.1 µM; in test [3], more than 250 µM; in test [1] (read-out: IC50) it was 230 nM.
As for `C[C@@H](n1c(=O)[nH]c2ccc(C3=NC(=O)[C@](C)(c4ccc(C(F)(F)F)cn4)N3)cc21)C(C)(C)C`, the IC50 in test [2] was 23.8 µM; in test [1] (read-out: IC50), 30 nM.
As for `C[C@@H](n1c(=O)[nH]c2ccc(C3=N[C@@](C)(c4cnc(C(F)(F)F)nc4)NC3=O)cc21)C(C)(C)C`, the IC50 is 3.8 µM in test [2] and 24 nM in test [1] (read-out: IC50).
As for `C[C@@H](n1c(=O)[nH]c2ccc(C(=O)N3CCOCC3)cc21)C(C)(C)C`, the figures for the IC50 in test [3] and in test [1] (read-out: IC50) were more than 250 µM and 26600 nM, respectively.
As for `C[C@@H](n1c(=O)[nH]c2ccc(C3=NC(=O)[C@@](C)(c4ccc(Cl)cn4)N3)cc21)C(C)(C)C`, the IC50 in test [1] (read-out: IC50) was 510 nM.
Regarding `Cc1ccc([C@]2(C)NC(c3ccc4[nH]c(=O)n([C@H](C)C(C)(C)C)c4c3)=NC2=O)nc1`, the concentration for half-maximal inhibition (IC50) in test [2] came to 13.8 µM; in test [1] (read-out: IC50), 96 nM.
With `C[C@H](NC(=O)c1ccc2[nH]c(=O)n([C@H](C)C(C)(C)C)c2c1)c1ncc(Cl)cn1`, the figures for the IC50 in test [2], in test [3] and in test [1] (read-out: IC50) were 29.2 µM, more than 250 µM and 430 nM, respectively.
Consider `C[C@@H](n1c(=O)[nH]c2ccc(C3=N[C@@](c4cccnc4)(c4nnc[nH]4)NC3=O)cc21)C(C)(C)C`, for which the figures for the IC50 in test [2] and in test [1] (read-out: IC50) were more than 85 µM and 26 nM, respectively.
On to `C[C@@H](n1c(=O)[nH]c2ccc(C3=N[C@@](C)(c4cc5ccccc5[nH]4)NC3=O)cc21)C(C)(C)C`, for which the figures for the IC50 in test [2] and in test [1] (read-out: IC50) were 9.9 µM and 55 nM, respectively.
`Cc1ncc([C@H](C)NC(=O)c2ccc3[nH]c(=O)n([C@H](C)C(C)(C)C)c3c2)cn1`: the IC50 was 22.4 µM in test [2], more than 250 µM in test [3] and 120 nM in test [1] (read-out: IC50).
Consider `C[C@@H](n1c(=O)[nH]c2ccc(C3=NOC(C)(c4ccccc4)N3)cc21)C(C)(C)C` (stereo not given in full), for which the IC50 worked out at 28 µM in test [2] and 900 nM in test [1] (read-out: IC50).
On to `Cc1[nH]c2cc(NC(=O)c3ccc4[nH]c(=O)n([C@H](C)C(C)(C)C)c4c3)ccc2c1C`, for which the IC50 in test [2] came out at 3.6 µM; in test [3], 165 µM; in test [1] (read-out: IC50), 60 nM.
The corresponding values for `C[C@H](NC(=O)c1ccc2[nH]c(=O)n([C@H](C)C(C)(C)C)c2c1)c1cnc(Cl)cn1` are 23.5 µM, more than 250 µM and 890 nM.
The corresponding values for `C[C@@H](n1c(=O)[nH]c2ccc(C(=O)NCc3ccc(Cl)cc3)cc21)C(C)(C)C` are 67.8 µM, more than 250 µM and 610 nM.
As to `C[C@@H](n1c(=O)[nH]c2ccc(C3=NC(c4ccc(Cl)cn4)(c4ccc(Cl)cn4)NC3=O)cc21)C(C)(C)C`, the figures for the IC50 in test [2] and in test [1] (read-out: IC50) were 37.1 µM and 200 nM, respectively.
Regarding `C[C@@H](n1c(=O)[nH]c2ccc(C(=O)Nc3ccccc3)cc21)C(C)(C)C`, the values for the IC50 in test [2], in test [3] and in test [1] (read-out: IC50) were 38.8 µM, more than 250 µM and 820 nM, respectively.
For the molecule `CC(C)Cn1c(=O)[nH]c2ccc(C(=O)O)cc21`, the IC50 in test [3] was more than 250 µM; in test [1] (read-out: IC50) it was 9100 nM.
For the molecule `C[C@@H](n1c(=O)[nH]c2ccc(C3=N[C@@](C)(c4ccc5nccn5c4)NC3=O)cc21)C(C)(C)C`, the IC50 in test [2] came out at 38.2 µM; in test [1] (read-out: IC50) it was 370 nM.

The values are drawn from ChEMBL document CHEMBL5344426, “Imidazolone as an Amide Bioisostere in the Development of β-1,3-N-Acetylglucosaminyltransferase 2 (B3GNT2) Inhibitors” (J Med Chem, 2023).
